The values that follow come from ChEMBL document CHEMBL3758129, “Design, synthesis and anti-HIV evaluation of novel diarylpyridine derivatives targeting the entrance channel of NNRTI binding pocket” (Eur J Med Chem, 2016).

What is called IC50 is the point on the concentration scale where inhibition reaches its midpoint. By EC50 is commonly meant the concentration needed to bring the measured effect to its halfway point. As a reminder, the CC50 is the concentration at which the toxic effect on the cells reaches its halfway point.

Molecules are shown by their SMILES.

In series [1] the target is Human immunodeficiency virus type 1 reverse transcriptase (Human immunodeficiency virus 1, UniProt Q72547). Nature of the series: Inhibition of HIV1 reverse transcriptase assessed as reduction in biotin-dUTP incorporation using poly(rA)-oligo(dT) as template/primer and digoxigenin-dUTP/biotin-dUTP/dTTP nucleotides incubated for 1 hr by ELISA.
Series [2] relates to Human immunodeficiency virus 2. Nature of the series: Antiviral activity against wild type HIV2 ROD infected in human MT4 cells assessed as reduction of virus-induced cytopathic effect after 5 days by MTT assay. Format: functional, organism-based. The following applies: Human immunodeficiency virus 2, ISOLATE ROD, MT4, 120 h.
Series [3] is described as follows: Cytotoxicity against human MT4 cells assessed as reduction in viability of mock infected cells after 5 days MTT assay. Format: cell-based. In general terms: Tetrazolium assays rely on reduction of a dye to a coloured formazan, in cell work by metabolically active cells.
Series [4] relates to Human immunodeficiency virus 1. Nature of the series: Antiviral activity against wild type HIV1 3B infected in human MT4 cells assessed as reduction of virus-induced cytopathic effect after 5 days by MTT assay. Format: functional, organism-based. The following applies: Human immunodeficiency virus 1, 3B, MT4, 120 h. For orientation: Cytopathic effects are the visible damage that an infection or toxin causes in cultured cells.

Series [5] can be described thus: Selectivity index, ratio of CC50 for human MT4 cells to EC50 for wild type HIV2 ROD infected in human MT4 cells. Format: toxicity, cell-based. As to conditions: read-out: Ratio CC50/EC50.
Series [6] is described as follows: Selectivity index, ratio of CC50 for human MT4 cells to EC50 for wild type HIV1 3B infected in human MT4 cells. It counts as toxicity, cell-based. As to conditions: read-out: Ratio CC50/EC50.

For `Cc1cc(C#N)cc(C)c1Oc1cc(NCCN(C)C)nc(Nc2ccc(C#N)cc2)c1`, the IC50 in series [1] is 3.4 µM. Besides, the EC50 in series [2] is more than 1.99 µM; in series [4], 0.041 µM. Also, in series [3], the CC50 at 120 h came out at 4.67 µM. Further, the results for the selectivity ratio in series [5] and in series [6] were less than 1 and 114, respectively.
